Data reported in US8299070B2, “Indole compounds and pharmaceutical use thereof” (Japan Tobacco Inc., priority 2009, dated 2012).
Structures can show the parent of a compound that is named as a salt.

biological target: T1, hITK enzyme (FLAG-tagged full-length hITK) (Homo sapiens, UniProt Q08881); assay: ITK inhibitory activity (HTRF kinase assay, biotinylated GST-SLP76 substrate); format: biochemical; conditions: IC50 calculated from the 2 test compound concentrations sandwiching 50% ITK inhibitory rate
T1 construct: strongly expressing FLAG-tagged full-length hITK in Sf9 cells; FLAG; made in house; host or cells: Sf9 insect cells (ITK); Escherichia coli (GST-SLP76 substrate)
T1 sequence (Q08881 1-620): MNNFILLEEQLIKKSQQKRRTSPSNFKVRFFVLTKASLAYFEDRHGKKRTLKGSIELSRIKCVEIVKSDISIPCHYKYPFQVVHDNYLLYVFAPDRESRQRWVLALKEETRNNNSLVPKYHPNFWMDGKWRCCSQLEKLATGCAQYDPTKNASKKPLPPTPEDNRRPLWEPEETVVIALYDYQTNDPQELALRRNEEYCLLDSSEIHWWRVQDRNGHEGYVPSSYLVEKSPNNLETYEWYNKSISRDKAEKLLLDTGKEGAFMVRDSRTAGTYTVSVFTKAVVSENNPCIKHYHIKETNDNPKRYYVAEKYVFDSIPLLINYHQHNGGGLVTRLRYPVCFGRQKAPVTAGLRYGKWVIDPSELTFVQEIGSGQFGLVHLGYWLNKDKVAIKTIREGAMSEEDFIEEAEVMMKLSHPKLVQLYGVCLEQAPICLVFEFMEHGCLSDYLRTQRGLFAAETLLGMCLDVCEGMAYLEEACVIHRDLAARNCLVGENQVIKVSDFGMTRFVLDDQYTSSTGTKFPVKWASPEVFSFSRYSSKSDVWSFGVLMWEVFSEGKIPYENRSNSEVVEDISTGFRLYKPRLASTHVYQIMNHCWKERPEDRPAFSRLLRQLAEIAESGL
Procedure: (1) Preparation of hITK Enzyme
hITK enzyme was prepared by strongly expressing FLAG-tagged full-length hITK in Sf9 cells, and purifying same by anti-FLAG antibody column.
(2) Preparation of biotinylated GST-SLP76
Biotinylated GST-SLP76 was prepared by strongly expressing GST-tagged SLP76 (aa95-175) in Escherichia coli, purifying same by glutathion sepharose column and biotinylating same.
(3) Preparation of Solution
(i) buffer for dilution: 20 mmol/L 3-(N-morpholino)propanesulfonic acid (pH 7.0) (DOJINDO LABORATORIES), 10 mmol/L magnesium chloride (Sigma-Aldrich Corporation), 1 mmol/L dithiothreitol (Nacalai Tesque, Inc.), 0.1% gelatin (Sigma-Aldrich Corporation)
(ii) substrate solution: 0.2 μg/mL biotinylated GST-SLP76, 100 μmol/L ATP (Sigma-Aldrich Corporation), prepared with buffer for dilution
(iii) test compound solution: test compound, 50% dimethyl sulfoxide (DMSO), prepared with buffer for dilution
(iv) enzyme solution: 50 ng/mL hITK enzyme, prepared with buffer for dilution
(v) control solution: solution after removal of test compound from the mixture of the above-mentioned (i), (ii) and (iii)
(vi) blank solution: solution after removal of ATP from the mixture of the above-mentioned (i), (ii) and (iii)
(vii) detection buffer: 0.1 μg/mL Anti-Phosphotyrosine (PT66)-Cryptate (Cisbio), 2.5 μg/mL streptavidin-binding XL665 (Cisbio), 50 mmol/L 4-(2-hydroxyethyl)-1-piperazineethanesulfonic acid (pH 7.4) (Nacalai Tesque, Inc.), 30 mmol/L EDTA (NipponGene), 0.1% TritonX (Sigma-Aldrich Corporation), 200 mmol/L potassium fluoride (Wako Pure Chemical Industries, Ltd.), 0.05% bovine serum albumin (Sigma-Aldrich Corporation) (4) Measurement of ITK Inhibitory Activity
A substrate solution (25 μL/well), a test compound solution (5 μL/well) and an enzyme solution (20 μL/well) were added into 96 well half-area white plate (plate, Corning Incorporated 3642) to start a kinase reaction. The plate was stood still at room temperature for 10 min. Then, a detection buffer (50 μL/well) was added to the plate. After 2 hr from the addition of the detection buffer, fluorescence intensity at 620 nm (excited at 337 nm), and fluorescence intensity at 665 nm ([…]) were measured by a fluorescence microplate reader.
The Ratio (fluorescence intensity at 665 nm/fluorescence intensity at 620 nm×10000) of each test compound was calculated from the measured fluorescence intensity. Simultaneously, the measurement was performed using a blank solution and a control solution, and % of control value of each test compound was calculated from the following formula. % of control=(Ratio of test compound−Ratio of blank)/(Ratio of control−Ratio of blank)×100 ITK inhibitory rate (%)=100−(% of control)
The IC50 value was calculated from the test compound concentrations at 2 points sandwiching 50% ITK inhibitory rate.
In the test for the compounds of Examples 380 and 381, the ATP concentration of the substrate solutions was 6 μmol/L.

IC50	SMILES
7 nM	CC[C@H](C(=O)N(C)c1ccc2cc(-c3n[nH]c4c3CCC(C)(C)C4)[nH]c2c1)N1CCOCC1 [Example 191]
2 nM	CC1(C)CCc2c(-c3cc4ccc(N(CCO)C(=O)C5CCCO5)cc4[nH]3)n[nH]c2C1 (stereo not shown) [Example 237]
5 nM	CC(O)C(=O)N(C)c1ccc2cc(-c3n[nH]c4c3CCC(C)(C)C4)[nH]c2c1 (stereo not shown) [Example 34]
5 nM	CCN(C(=O)CO)c1ccc2cc(-c3n[nH]c4c3CCC(C)(C)C4)[nH]c2c1 [Example 206]
138 nM	CN(C(=O)c1ccc2[nH]c(-c3n[nH]c4c3CCC(C)(C)C4)cc2c1)c1ccccc1 [Example 295]
11 nM	CN(C(=O)C1CCCC1)c1ccc2cc(-c3n[nH]c4c3CCC(C)(C)C4)[nH]c2c1 [Example 33]
10 nM	CC1(C)CCc2c(-c3cc4ccc(N(CCO)C(=O)C(O)C5CCCOC5)cc4[nH]3)n[nH]c2C1 (stereo not shown) [Example 245]
13 nM	CC(C)C(C(=O)N(C)c1ccc2cc(-c3n[nH]c4c3CCC(C)(C)C4)[nH]c2c1)N1CCOCC1 (stereo not shown) [Example 173]
13 nM	COC(=O)CNC(=O)c1ccc2[nH]c(-c3n[nH]c4c3CCC(C)(C)C4)cc2c1 [Example 305]
1 nM	CN(C(=O)CN1CCCCCC1=O)c1ccc2cc(-c3n[nH]c4c3CCC(C)(C)C4)[nH]c2c1 [Example 127]
11 nM	CCC(=O)N(C)c1ccc2cc(-c3n[nH]c4c3CC(OC)C(C)(C)C4)[nH]c2c1 (stereo not shown) [Example 372]
2 nM	CC1CCC(=O)N1CC(=O)N(C)c1ccc2cc(-c3n[nH]c4c3CCC(C)(C)C4)[nH]c2c1 (stereo not shown) [Example 136]
3 nM	CN(C(=O)COC1CCOCC1)c1ccc2cc(-c3n[nH]c4c3CCC(C)(C)C4)[nH]c2c1 [Example 88]
26 nM	CC1(C)CCc2c(-c3cc4cc(C(=O)N5C[C@@H](O)[C@@H](O)C5)ccc4[nH]3)n[nH]c2C1 [Example 335]
8 nM	CN(C)CCN(C(=O)C1CCOCC1)c1ccc2cc(-c3n[nH]c4c3CCC(C)(C)C4)[nH]c2c1 [Example 216]
2 nM	C[C@@H](C(=O)N(C)c1ccc2cc(-c3n[nH]c4c3CCC(C)(C)C4)[nH]c2c1)N1CCOCC1 [Example 4, (S)—N-[2-(6,6-dimethyl-4,5,6,7-tetrahydro-1H-indazol-3-yl)-1H-indol-6-yl]-N-methyl-2-(morpholin-4-yl)propionamide]
4 nM	CCN(C(=O)COC)c1ccc2cc(-c3n[nH]c4c3CCC(C)(C)C4)[nH]c2c1 [Example 207]
2 nM	CN(C(=O)CN1CCCC(C)(C)C1=O)c1ccc2cc(-c3n[nH]c4c3CCC(C)(C)C4)[nH]c2c1 [Example 174]
< 3 nM	CCCOCC(=O)N(C)c1ccc2cc(-c3n[nH]c4c3CCC(C)(C)C4)[nH]c2c1 [Example 55]
2 nM	CC1CCCC(=O)N1CC(=O)N(C)c1ccc2cc(-c3n[nH]c4c3CCC(C)(C)C4)[nH]c2c1 (stereo not shown) [Example 137]
36 nM	CC1(C)CCc2c(-c3cc4ccc(N5CCCC5=O)cc4[nH]3)n[nH]c2C1 [Example 210]
33 nM	CC1(C)CCc2c(-c3cc4cc(C(=O)NCCO)ccc4[nH]3)n[nH]c2C1 [Example 303]
3 nM	CC1(C)CCc2c(-c3cc4ccc(N(CCO)C(=O)CC5CCCOC5)cc4[nH]3)n[nH]c2C1 (stereo not shown) [Example 232]
5 nM	CN(C(=O)CC1CCC(=O)N1C)c1ccc2cc(-c3n[nH]c4c3CCC(C)(C)C4)[nH]c2c1 (stereo not shown) [Example 142]
2 nM	COCCN(C(=O)CN1C[C@H](C)OCC1=O)c1ccc2cc(-c3n[nH]c4c3CCC(C)(C)C4)[nH]c2c1 [Example 280]

IC50	SMILES
3 nM	COCCN(c1ccc2cc(-c3n[nH]c4c3CCC(C)(C)C4)[nH]c2c1)C(=O)[C@H]1CC[C@@H](O)CC1 [Example 259]
5 nM	CC1(C)CCc2c(-c3cc4ccc(N(CCO)C(=O)CN5CCOCC5)cc4[nH]3)n[nH]c2C1 [Example 254]
45 nM	CC(N(C)C(=O)c1ccc2cc(-c3n[nH]c4c3CCC(C)(C)C4)[nH]c2c1)C(C)(C)C (stereo not shown) [Example 18]
6 nM	COCC(C)C(=O)N(C)c1ccc2cc(-c3n[nH]c4c3CCC(C)(C)C4)[nH]c2c1 (stereo not shown) [Example 58]
2 nM	C[C@@H]1CN(CC(=O)N(C)c2ccc3cc(-c4n[nH]c5c4CCC(C)(C)C5)[nH]c3c2)C(=O)CO1 [Example 182]
30 nM	COCC(C)NC(=O)c1ccc2cc(-c3n[nH]c4c3CCC(C)(C)C4)[nH]c2c1 (stereo not shown) [Example 21]
485 nM	CN(C(=O)OCc1ccccc1)c1ccc2cc(-c3n[nH]c4c3CC(OCc3ccccc3)C(C)(C)C4)[nH]c2c1 (stereo not shown) [Example 363]
27 nM	CN(CCO)C(=O)c1ccc2[nH]c(-c3n[nH]c4c3CCC(C)(C)C4)cc2c1 [Example 304]
61 nM	CC(C)OCCNC(=O)c1ccc2[nH]c(-c3n[nH]c4c3CCC(C)(C)C4)cc2c1 [Example 307]
5 nM	CCCC(=O)N(C)c1ccc2cc(-c3n[nH]c4c3CCC(C)(C)C4)[nH]c2c1 [Example 38]
7 nM	CCN(c1ccc2cc(-c3n[nH]c4c3CCC(C)(C)C4)[nH]c2c1)C(=O)[C@H]1CC[C@@H](OC)CC1 [Example 266]
34 nM	CC1(C)CCc2c(-c3cc4ccc(N5CCC(CO)(C6CCCCC6)C5=O)cc4[nH]3)n[nH]c2C1 (stereo not shown) [Example 251]
1 nM	CN(C(=O)CN1CCC(C)(C)CC1=O)c1ccc2cc(-c3n[nH]c4c3CCC(C)(C)C4)[nH]c2c1 [Example 189]
6 nM	COCCN(C(=O)CC1CCOCC1)c1ccc2cc(-c3n[nH]c4c3CCC(C)(C)C4)[nH]c2c1 [Example 269]
4 nM	COCCC(=O)N(C)c1ccc2cc(-c3n[nH]c4c3CCC(C)(C)C4)[nH]c2c1 [Example 62]
85 nM	CC1(C)CCc2c(-c3cc4ccc(NC(N)=O)cc4[nH]3)n[nH]c2C1 [Example 29]
< 3 nM	CN(C(=O)CC1CCCO1)c1ccc2cc(-c3n[nH]c4c3CCC(C)(C)C4)[nH]c2c1 (stereo not shown) [Example 71]
9 nM	COCC(=O)N(C)c1ccc2cc(-c3n[nH]c4c3CCC(C)C4)[nH]c2c1 (stereo not shown) [Example 356]
3 nM	C[C@@H](C(=O)N(C)c1ccc2cc(-c3n[nH]c4c3CCC(C)(C)C4)[nH]c2c1)N1CCOCC1 [Example 5, (S)—N-[2-(6,6-dimethyl-4,5,6,7-tetrahydro-1H-indazol-3-yl)-1H-indol-6-yl]-N-methyl-2-(morpholin-4-yl)propionamide hydrochloride]
22 nM	COC(C)(C)C(=O)N(C)c1ccc2cc(-c3n[nH]c4c3CCC(C)(C)C4)[nH]c2c1 [Example 42]
7 nM	COC1CCC(CC(=O)N(C)c2ccc3cc(-c4n[nH]c5c4CCC(C)(C)C5)[nH]c3c2)CC1 (stereo not shown) [Example 176]
1 nM	CC1OCCN(CC(=O)N(C)c2ccc3cc(-c4n[nH]c5c4CCC(C)(C)C5)[nH]c3c2)C1=O (stereo not shown) [Example 167]
4 nM	CC(C)C(O)C(=O)N(C)c1ccc2cc(-c3n[nH]c4c3CCC(C)(C)C4)[nH]c2c1 (stereo not shown) [Example 67]
5 nM	CC1(C)CCc2c(-c3cc4ccc(N(CCO)C(=O)C5CCCCC5)cc4[nH]3)n[nH]c2C1 [Example 239]
